Values after ≈ are worked out from the molar mass of the structure shown. Blank lines part the entries; values can stand above or below the compound they belong to.
System: Escherichia coli ATCC 25922
Test: Minimal Inhibitory Concentration (MIC) determination, broth microdilution (CLSI M07-A10)
Type: cell-based
Conditions: Escherichia coli, ATCC25922, strain Escherichia coli ATCC 25922, 18-24 hours at 35±2° C., lowest concentration for complete growth inhibition (no visible growth), read-out: Escherichia coli growth inhibition MIC
Outline: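 MIC read visually as the lowest concentration with complete growth inhibition after 18-24 h at 35±2° C, ambient air. Method follows CLSI M07-A10 broth microdilution, two-fold compound series, inoculum standardized to 0.5 McFarland then diluted 1:200.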

SMILES: O=C(O)C(F)(F)F.O=C1COc2ncc(N3CC4(CCN(CC5Cc6c(c(F)c7[nH]c([C@H]8C[C@H](O)CN8)nc7c6F)C5)CC4)OC3=O)nc2N1 [Example 49, 6-[8-[[4,8-difluoro-2-[(2R,4S)-4-hydroxypyrrolidin-2-yl]-3,5,6,7-tetrahydrocyclopenta[f]benzimidazol-6-yl]methyl]-2-oxo-1-oxa-3,8-diazaspiro[4.5]decan-3-yl]-4H-pyrazino[2,3-b][1,4]oxazin-3-one; 2,2,2-trifluoroacetic acid]
- MIC: 0.25 µg/mL

SMILES: O=C(O)C(F)(F)F.O=C1COc2ncc(N3CC4(CCN(CC5Cc6c(c(F)c7[nH]c([C@H]8C[C@@H](O)CN8)nc7c6F)C5)CC4)OC3=O)nc2N1 [Example 50, 6-[8-[[4,8-difluoro-2-[(2R,4R)-4-hydroxypyrrolidin-2-yl]-3,5,6,7-tetrahydrocyclopenta[f]benzimidazol-6-yl]methyl]-2-oxo-1-oxa-3,8-diazaspiro[4.5]decan-3-yl]-4H-pyrazino[2,3-b][1,4]oxazin-3-one; 2,2,2-trifluoroacetic acid]
- MIC: 0.25 µg/mL

SMILES: O=C(O)C(F)(F)F.O=C1COc2ncc(N3CC4(CCN(CC5Cc6c(c(F)c7[nH]c([C@@H]8C[C@H](O)CN8)nc7c6F)C5)CC4)OC3=O)nc2N1 [Example 52, 6-[8-[[4,8-difluoro-2-[(2S,4S)-4-hydroxypyrrolidin-2-yl]-3,5,6,7-tetrahydrocyclopenta[f]benzimidazol-6-yl]methyl]-2-oxo-1-oxa-3,8-diazaspiro[4.5]decan-3-yl]-4H-pyrazino[2,3-b][1,4]oxazin-3-one; 2,2,2-trifluoroacetic acid]
- MIC: 0.5 µg/mL

Second part, the compound after the results:

- MIC: 2 µg/mL
SMILES: O=C(O)C(F)(F)F.O=C1COc2ncc(N3CC(CCNCC4Cc5c(c(F)c6[nH]c([C@@H]7C[C@@H](O)CN7)nc6c5F)C4)OC3=O)nc2N1 (stereo partly drawn) [Example 47, 6-[5-[2-[[4,8-difluoro-2-[(2S,4R)-4-hydroxypyrrolidin-2-yl]-3,5,6,7-tetrahydrocyclopenta[f]benzimidazol-6-yl]methylamino]ethyl]-2-oxo-oxazolidin-3-yl]-4H-pyrazino[2,3-b][1,4]oxazin-3-one; 2,2,2-trifluoroacetic acid]

- MIC: 0.25 µg/mL
SMILES: O=C(O)C(F)(F)F.O=C1COc2ncc(N3CC4(CCN(CC5Cc6cc7[nH]c([C@@H]8C[C@@H](O)CN8)nc7c(F)c6C5)CC4)OC3=O)nc2N1 (stereo partly drawn) [Example 48, 6-[8-[[8-fluoro-2-[(2S,4R)-4-hydroxypyrrolidin-2-yl]-3,5,6,7-tetrahydrocyclopenta[f]benzimidazol-6-yl]methyl]-2-oxo-1-oxa-3,8-diazaspiro[4.5]decan-3-yl]-4H-pyrazino[2,3-b][1,4]oxazin-3-one; 2,2,2-trifluoroacetic acid]

- MIC: 4 µg/mL (≈ 6.87 µM)
SMILES: O=C1COc2ncc(N3CC4(CC(NCC5Cc6c(c(F)c7[nH]c([C@H]8C[C@@H](O)CN8)nc7c6F)C5)C4)OC3=O)nc2N1 (stereo partly drawn) [Example 53, 6-[2-[[4,8-difluoro-2-[(2R,4R)-4-hydroxypyrrolidin-2-yl]-3,5,6,7-tetrahydrocyclopenta[f]benzimidazol-6-yl]methylamino]-6-oxo-5-oxa-7-azaspiro[3.4]octan-7-yl]-4H-pyrazino[2,3-b][1,4]oxazin-3-one]

- MIC: 0.125 µg/mL
SMILES: O=C(O)C(F)(F)F.O=C1COc2ncc(N3CC4(CCN(CC5Cc6c(c(F)c7[nH]c([C@H]8NCC[C@@H]8O)nc7c6F)C5)CC4)OC3=O)nc2N1 [Example 54, 6-[8-[[4,8-difluoro-2-[(2R,3S)-3-hydroxypyrrolidin-2-yl]-3,5,6,7-tetrahydrocyclopenta[f]benzimidazol-6-yl]methyl]-2-oxo-1-oxa-3,8-diazaspiro[4.5]decan-3-yl]-4H-pyrazino[2,3-b][1,4]oxazin-3-one; 2,2,2-trifluoroacetic acid]

From US20240252506A1 (Hoffmann-La Roche Inc., priority 2021, published 2024)
